In ChEMBL document CHEMBL5212743, “Selectivity Literature for EUbOPEN Chemogenomics Library wave 3” (2023):

Legend:
[1] = target: Serine/threonine-protein kinase 16 (Homo sapiens, UniProt O75716); experiment: Selectivity interaction (KinomeScan (DiscoverX)) EUB0000138c STK16; details: at 100 nM
[2] = target: Cyclin-dependent kinase 8 (Homo sapiens) (UniProt P49336); details: at 1 µM
[3] = target: Cyclin-dependent kinase 19 (Homo sapiens) (UniProt Q9BWU1); details: at 1 µM
[4] = target: Hepatocyte growth factor receptor (Homo sapiens) (UniProt P08581); details: at 1 µM
[5] = target: Muscle, skeletal receptor tyrosine-protein kinase (Homo sapiens) (UniProt O15146); details: at 1 µM
[6] = target: Receptor-type tyrosine-protein kinase FLT3 (Homo sapiens) (UniProt P36888); details: at 1 µM
[7] = target: MAP kinase-activated protein kinase 2 (Homo sapiens, UniProt P49137); experiment: Selectivity interaction (Kinase panel (University of Dundee)) EUB0000169b MAPKAPK2; details: at 10 µM
[8] = target: Cyclin-dependent kinase 2 (Homo sapiens, UniProt P24941); experiment: Selectivity interaction (Kinase panel (University of Dundee)) EUB0000169b CDK2; details: at 10 µM
[9] = target: Serine/threonine-protein kinase Nek6 (Homo sapiens) (UniProt Q9HC98); experiment: Selectivity interaction (Kinase panel (University of Dundee)) EUB0000169b NEK6; details: at 10 µM
[10] = target: Ribosomal protein S6 kinase alpha-5 (Homo sapiens) (UniProt O75582); experiment: Selectivity interaction (Kinase panel (University of Dundee)) EUB0000169b RPS6KA5; details: at 10 µM
[11] = target: Serine/threonine-protein kinase Chk2 (Homo sapiens, UniProt O96017); experiment: Selectivity interaction (KinomeScan (DiscoverX)) EUB0000702a CHEK2; details: at 1 µM
[12] = target: Cyclin-dependent kinase 7 (Homo sapiens) (UniProt P50613); experiment: Selectivity interaction (KinomeScan (DiscoverX)) EUB0000702a CDK7; details: at 1 µM
[13] = target: Serine/threonine-protein kinase PLK2 (Homo sapiens) (UniProt Q9NYY3); experiment: Selectivity interaction (KinomeScan (DiscoverX)) EUB0000702a PLK2; details: at 1 µM
[14] = target: T1, Tyrosine-protein kinase JAK3 (Homo sapiens) (UniProt P52333); experiment: Selectivity interaction (KinomeScan (DiscoverX)) EUB0000702a JAK3; details: at 1 µM
T1 sequence (whole entry): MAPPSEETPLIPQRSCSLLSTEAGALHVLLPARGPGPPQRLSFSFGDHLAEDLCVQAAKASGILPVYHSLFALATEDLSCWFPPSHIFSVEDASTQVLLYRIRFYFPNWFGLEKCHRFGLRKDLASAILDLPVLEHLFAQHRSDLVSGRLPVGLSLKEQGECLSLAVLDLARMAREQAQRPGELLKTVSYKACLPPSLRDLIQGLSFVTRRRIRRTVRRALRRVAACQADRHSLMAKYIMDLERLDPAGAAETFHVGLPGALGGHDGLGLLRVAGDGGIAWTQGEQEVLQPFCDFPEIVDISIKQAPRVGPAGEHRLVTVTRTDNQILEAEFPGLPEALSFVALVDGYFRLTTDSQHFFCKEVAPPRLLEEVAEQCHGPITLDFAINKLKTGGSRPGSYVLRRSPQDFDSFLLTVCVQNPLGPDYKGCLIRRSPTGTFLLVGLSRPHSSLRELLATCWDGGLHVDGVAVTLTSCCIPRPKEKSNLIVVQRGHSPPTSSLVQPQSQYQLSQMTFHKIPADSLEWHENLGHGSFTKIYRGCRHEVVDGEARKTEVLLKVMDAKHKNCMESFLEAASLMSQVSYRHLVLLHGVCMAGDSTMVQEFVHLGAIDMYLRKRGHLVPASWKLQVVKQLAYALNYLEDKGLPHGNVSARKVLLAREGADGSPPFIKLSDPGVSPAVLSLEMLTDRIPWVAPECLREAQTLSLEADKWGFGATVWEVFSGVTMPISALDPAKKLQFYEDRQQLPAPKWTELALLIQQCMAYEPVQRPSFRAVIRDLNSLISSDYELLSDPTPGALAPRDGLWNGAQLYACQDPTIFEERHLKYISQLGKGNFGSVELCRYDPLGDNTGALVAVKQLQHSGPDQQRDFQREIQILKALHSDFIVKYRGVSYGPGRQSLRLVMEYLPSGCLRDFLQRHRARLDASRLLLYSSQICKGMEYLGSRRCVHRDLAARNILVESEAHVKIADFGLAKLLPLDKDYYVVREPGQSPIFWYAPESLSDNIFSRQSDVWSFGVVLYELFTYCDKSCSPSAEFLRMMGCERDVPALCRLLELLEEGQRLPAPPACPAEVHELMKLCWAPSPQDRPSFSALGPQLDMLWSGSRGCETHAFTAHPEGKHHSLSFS

[15] = test system: Leucine-rich repeat serine/threonine-protein kinase 2 (Homo sapiens), Q5S007 [G2019S]; experiment: Selectivity interaction (KinomeScan (DiscoverX)) EUB0000702a LRRK2; details: at 1 µM
Aurora kinase B = Aurora kinase B (Homo sapiens, UniProt Q96GD4); experiment: Selectivity interaction (Enzymatic assay) EUB0000178b AURKB
[16] = target: Serine/threonine-protein kinase 24 (Homo sapiens) (UniProt Q9Y6E0); experiment: Selectivity interaction (KinomeScan (DiscoverX)) EUB0000178b STK24; details: at 1 µM
[17] = target: Non-receptor tyrosine-protein kinase TYK2 (Homo sapiens, UniProt P29597); experiment: Selectivity interaction (KinomeScan (DiscoverX)) EUB0000178b TYK2; details: at 1 µM
[18] = target: Serine/threonine-protein kinase RIO1 (Homo sapiens) (UniProt Q9BRS2); experiment: Selectivity interaction (KinomeScan (DiscoverX)) EUB0000698a RIOK1; details: at 10 µM

MAP kinase-activated protein kinase 2, sequence (P49137 whole entry, looked up): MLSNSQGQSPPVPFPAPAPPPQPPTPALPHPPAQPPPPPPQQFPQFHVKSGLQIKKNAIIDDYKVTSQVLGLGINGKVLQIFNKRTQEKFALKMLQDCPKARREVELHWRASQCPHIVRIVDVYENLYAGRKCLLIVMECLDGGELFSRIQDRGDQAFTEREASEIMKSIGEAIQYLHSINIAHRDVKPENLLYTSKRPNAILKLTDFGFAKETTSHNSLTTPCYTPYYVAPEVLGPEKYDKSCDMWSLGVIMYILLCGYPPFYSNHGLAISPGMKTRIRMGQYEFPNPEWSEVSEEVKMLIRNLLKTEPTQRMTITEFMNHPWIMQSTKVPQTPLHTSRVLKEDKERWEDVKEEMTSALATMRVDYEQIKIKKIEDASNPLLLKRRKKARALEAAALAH
Hepatocyte growth factor receptor (Homo sapiens), sequence (P08581 whole entry): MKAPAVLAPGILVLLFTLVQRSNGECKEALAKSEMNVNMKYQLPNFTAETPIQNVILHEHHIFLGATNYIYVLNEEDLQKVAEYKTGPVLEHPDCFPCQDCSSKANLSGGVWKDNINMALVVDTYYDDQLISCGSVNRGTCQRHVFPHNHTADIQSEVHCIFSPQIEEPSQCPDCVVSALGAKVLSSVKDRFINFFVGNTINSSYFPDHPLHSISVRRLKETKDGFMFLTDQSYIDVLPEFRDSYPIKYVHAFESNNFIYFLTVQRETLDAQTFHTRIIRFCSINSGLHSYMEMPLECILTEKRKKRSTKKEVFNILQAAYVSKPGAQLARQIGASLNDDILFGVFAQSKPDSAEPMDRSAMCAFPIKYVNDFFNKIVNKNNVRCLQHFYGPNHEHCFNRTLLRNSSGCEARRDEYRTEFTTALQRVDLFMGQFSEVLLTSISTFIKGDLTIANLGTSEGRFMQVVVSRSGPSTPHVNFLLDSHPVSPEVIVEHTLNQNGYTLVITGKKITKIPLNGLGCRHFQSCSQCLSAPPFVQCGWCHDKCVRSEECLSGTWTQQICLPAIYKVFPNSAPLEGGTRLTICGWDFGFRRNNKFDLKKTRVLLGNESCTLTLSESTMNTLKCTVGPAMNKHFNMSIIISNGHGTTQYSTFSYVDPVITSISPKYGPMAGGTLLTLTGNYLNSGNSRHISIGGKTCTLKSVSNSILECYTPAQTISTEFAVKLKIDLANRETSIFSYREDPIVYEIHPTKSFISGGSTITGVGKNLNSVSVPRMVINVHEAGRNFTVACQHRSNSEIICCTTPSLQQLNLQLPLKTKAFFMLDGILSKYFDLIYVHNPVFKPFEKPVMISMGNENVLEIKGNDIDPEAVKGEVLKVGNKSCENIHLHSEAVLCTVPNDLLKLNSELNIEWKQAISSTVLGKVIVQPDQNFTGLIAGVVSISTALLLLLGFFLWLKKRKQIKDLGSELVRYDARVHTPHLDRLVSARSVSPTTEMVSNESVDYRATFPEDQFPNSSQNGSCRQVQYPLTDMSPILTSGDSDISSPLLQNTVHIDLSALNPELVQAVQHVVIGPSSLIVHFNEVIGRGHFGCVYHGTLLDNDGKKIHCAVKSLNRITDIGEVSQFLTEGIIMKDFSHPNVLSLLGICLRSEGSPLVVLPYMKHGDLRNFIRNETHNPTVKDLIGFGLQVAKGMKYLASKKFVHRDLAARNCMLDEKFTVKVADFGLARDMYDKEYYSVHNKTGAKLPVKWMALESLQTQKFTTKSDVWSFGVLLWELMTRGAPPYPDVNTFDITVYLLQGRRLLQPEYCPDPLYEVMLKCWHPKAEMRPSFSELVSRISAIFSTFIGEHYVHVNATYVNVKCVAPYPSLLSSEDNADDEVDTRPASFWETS
Receptor-type tyrosine-protein kinase FLT3 (Homo sapiens), sequence (P36888 whole entry): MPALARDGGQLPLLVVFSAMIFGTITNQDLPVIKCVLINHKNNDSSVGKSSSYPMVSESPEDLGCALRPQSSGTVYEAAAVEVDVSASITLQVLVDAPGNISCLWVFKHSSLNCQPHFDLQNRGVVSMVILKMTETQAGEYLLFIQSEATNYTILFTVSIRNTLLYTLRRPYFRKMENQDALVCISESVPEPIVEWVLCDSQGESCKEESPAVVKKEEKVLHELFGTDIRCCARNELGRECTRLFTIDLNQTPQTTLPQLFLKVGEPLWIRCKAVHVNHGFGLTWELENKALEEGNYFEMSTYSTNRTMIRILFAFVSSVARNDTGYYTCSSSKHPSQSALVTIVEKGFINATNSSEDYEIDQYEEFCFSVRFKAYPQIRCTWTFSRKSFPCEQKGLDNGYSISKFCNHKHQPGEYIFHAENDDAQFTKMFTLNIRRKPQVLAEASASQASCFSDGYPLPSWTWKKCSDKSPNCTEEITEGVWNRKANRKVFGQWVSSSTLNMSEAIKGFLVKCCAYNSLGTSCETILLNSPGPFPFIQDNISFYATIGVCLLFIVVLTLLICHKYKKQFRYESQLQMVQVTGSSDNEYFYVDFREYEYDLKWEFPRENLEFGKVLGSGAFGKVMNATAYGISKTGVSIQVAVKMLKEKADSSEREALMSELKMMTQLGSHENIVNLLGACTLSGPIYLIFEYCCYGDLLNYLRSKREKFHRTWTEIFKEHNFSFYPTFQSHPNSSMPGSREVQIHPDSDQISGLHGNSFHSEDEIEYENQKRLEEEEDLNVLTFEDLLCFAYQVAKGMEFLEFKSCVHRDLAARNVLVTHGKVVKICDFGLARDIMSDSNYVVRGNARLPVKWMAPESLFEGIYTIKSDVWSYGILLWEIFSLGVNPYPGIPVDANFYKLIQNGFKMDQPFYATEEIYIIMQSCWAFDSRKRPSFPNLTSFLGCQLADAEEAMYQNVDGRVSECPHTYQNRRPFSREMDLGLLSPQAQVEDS
Cyclin-dependent kinase 19 (Homo sapiens), sequence (Q9BWU1 whole entry): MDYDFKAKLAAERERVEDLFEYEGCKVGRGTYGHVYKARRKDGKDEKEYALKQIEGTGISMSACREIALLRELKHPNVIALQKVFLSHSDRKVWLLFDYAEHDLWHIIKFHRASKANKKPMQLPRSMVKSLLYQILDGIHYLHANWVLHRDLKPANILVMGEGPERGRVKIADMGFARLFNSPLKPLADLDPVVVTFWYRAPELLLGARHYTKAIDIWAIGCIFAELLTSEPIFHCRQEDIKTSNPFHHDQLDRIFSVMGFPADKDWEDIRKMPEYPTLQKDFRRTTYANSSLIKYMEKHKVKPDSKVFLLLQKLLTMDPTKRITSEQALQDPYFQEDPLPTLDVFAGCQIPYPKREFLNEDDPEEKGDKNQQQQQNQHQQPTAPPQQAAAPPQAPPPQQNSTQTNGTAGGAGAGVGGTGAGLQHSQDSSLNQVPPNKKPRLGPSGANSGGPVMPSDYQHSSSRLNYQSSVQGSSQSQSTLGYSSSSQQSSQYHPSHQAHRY
Aurora kinase B, sequence (Q96GD4 whole entry): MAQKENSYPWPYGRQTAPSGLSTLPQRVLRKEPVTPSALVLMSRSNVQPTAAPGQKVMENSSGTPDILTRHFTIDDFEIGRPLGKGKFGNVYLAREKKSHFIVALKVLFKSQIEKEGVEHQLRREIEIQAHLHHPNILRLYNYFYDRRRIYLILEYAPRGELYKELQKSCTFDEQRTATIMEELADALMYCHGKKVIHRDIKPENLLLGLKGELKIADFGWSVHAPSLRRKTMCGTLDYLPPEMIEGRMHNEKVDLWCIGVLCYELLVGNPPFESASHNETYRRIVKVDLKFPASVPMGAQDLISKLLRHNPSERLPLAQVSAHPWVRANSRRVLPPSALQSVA
Serine/threonine-protein kinase Chk2, sequence (O96017 whole entry): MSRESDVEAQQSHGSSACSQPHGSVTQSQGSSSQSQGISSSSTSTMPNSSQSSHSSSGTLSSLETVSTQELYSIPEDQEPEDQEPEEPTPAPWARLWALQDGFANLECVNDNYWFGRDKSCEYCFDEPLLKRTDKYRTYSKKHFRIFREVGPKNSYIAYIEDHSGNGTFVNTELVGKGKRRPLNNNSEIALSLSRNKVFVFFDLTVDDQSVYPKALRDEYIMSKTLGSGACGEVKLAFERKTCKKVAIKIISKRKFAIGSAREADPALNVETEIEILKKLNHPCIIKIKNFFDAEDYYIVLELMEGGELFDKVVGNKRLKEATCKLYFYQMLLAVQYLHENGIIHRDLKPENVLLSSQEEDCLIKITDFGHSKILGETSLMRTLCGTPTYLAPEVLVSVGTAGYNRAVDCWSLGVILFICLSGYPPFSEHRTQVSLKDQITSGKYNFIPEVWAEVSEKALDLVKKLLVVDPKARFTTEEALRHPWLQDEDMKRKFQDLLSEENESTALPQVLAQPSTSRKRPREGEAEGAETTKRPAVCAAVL
Muscle, skeletal receptor tyrosine-protein kinase (Homo sapiens), sequence (O15146 whole entry): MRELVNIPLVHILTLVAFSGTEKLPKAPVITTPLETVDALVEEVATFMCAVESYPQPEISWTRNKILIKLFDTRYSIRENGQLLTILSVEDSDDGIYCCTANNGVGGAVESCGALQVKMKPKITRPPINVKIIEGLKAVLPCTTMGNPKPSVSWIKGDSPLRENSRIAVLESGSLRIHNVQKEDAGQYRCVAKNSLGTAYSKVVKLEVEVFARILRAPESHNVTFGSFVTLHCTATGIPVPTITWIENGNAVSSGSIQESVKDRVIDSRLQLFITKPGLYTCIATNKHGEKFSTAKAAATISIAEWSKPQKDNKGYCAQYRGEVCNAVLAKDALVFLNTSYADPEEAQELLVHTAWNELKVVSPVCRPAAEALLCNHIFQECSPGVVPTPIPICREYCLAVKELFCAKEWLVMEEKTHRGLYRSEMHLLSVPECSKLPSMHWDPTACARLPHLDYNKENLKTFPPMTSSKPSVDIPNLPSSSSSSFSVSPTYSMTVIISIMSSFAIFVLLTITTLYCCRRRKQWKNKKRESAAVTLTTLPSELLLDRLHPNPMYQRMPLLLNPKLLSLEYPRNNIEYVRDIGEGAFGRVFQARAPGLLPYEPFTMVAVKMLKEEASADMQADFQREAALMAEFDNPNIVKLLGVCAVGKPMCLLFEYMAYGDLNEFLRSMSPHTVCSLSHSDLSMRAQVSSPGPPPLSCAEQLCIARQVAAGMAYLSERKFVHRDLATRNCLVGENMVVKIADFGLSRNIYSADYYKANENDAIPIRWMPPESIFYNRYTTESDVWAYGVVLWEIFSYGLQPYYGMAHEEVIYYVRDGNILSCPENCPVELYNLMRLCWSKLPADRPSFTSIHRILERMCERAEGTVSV

`CNC(=O)c1ccc(Nc2ncc(C(F)(F)F)c(NCc3nccnc3N(C)S(C)(=O)=O)n2)cc1` [DEFACTINIB] showed a % of control [1] of 7.7%.

In the case of `CCOc1cn(-c2ccc(F)cc2C)nc1C(=O)Nc1ccc(Oc2ccnc3cc(OC)c(OC)cc23)c(F)c1`, the % of control [2] is reported as < 10%, the % of control [3] is reported as < 10% and the % of control [4] is reported as < 10%. For the same compound, the % of control [5] was < 10% and the % of control [6] was < 10%.

`CC[C@@H]1C(=O)N(C)c2cnc(Nc3ccc(C(=O)NC4CCN(C)CC4)cc3OC)nc2N1C1CCCC1` gave a % of control [7] of 79%, a % of control [8] of 20% and a % of control [9] of 110%. The % of control [10] was 89%.

Compound `CN(c1ccnc(CNc2nc(Nc3ccc4c(c3)CC(=O)N4)ncc2C(F)(F)F)n1)S(C)(=O)=O` [PF-00911705] has a % of control [11] of 0%, a % of control [12] of 3.5% and a % of control [13] of 0.5%. It also gave a % of control [14] of 1.9% and a % of control [15] of 7.3%.

`CN1C(=O)c2sccc2N(C)c2nc(Nc3ccc(S(N)(=O)=O)cc3)ncc21` was tested, and the IC50 (Aurora kinase B) was 19.4 nM, the % of control [16] was 0.9% and the % of control [17] was 2.7%.

With `COc1cc2ncn(-c3cc(OCc4ccccc4C(F)(F)F)c(C(N)=O)s3)c2cc1OC` [GW843682X] the % of control [18] was 4.1%.
